This is an account of results in patent EP0360850B1, “ANTIMICROBIAL AGENTS” (GIVAUDAN-ROURE (INTERNATIONAL) S.A., priority 1988, dated 1989).

One assay deals with Pseudomonas aeruginosa. The experiment in a line: Preservative test in cosmetic lotion, weekly reinoculation. Format: cell-based. As to the method:
(§1) a. Cutting Oil Emulsions. […] Various aliquots of a 6% solution of the test compound in ethanol were added to cutting oil emulsions prepared by diluting Kutwell® 30 cutting oil concentrate 1 to 30 with water. These samples were inoculated with a culture of Ps. aeruginosa and incubated at 28°C on a rotary shaker. At weekly intervals, the samples were examined for microorganisms and then reinoculated and incubated. […] Cosmetic compositions. […] Serial dilutions of the compounds in dimethylformamide were added to a prepared, sterile cosmetic lotion of the following composition:
(§2) Samples of the lotion containing varying levels of the acrylonitrile derivatives were divided into two portions; one portion was inoculated with a spore suspension of A. niger, and the other portion with a 24-hour nutrient broth culture of Ps. aeruginosa. These two organisms are frequently found as contaminants in cosmetic products. The samples were incubated for a 4-week period with weekly examinations for the growth of the organisms. At weekly intervals, the samples were also reinoculated with the test organisms. Presence of fungal growth was determined macroscopically while bacterial contamination was determined by streaking one 4-mm loopful (0.01ml) of the lotion onto the surface of trypticase glucose extract agar (Baltimore Biological Laboratories, Baltimore, MD) containing 0.005% triphenyl tetrazolium chloride and letheen antidote. Results of these tests showing the minimum inhibitory concentration through the 4-week incubation period are tabulated in Table IV and show, once again, that the compounds where R is methyl or ethyl show a broad spectrum activity for the preservation of cosmetic products against the type of fungus and bacterium most likely to cause problems in cosmetics.

The test system of another assay is Aspergillus niger. Described as above. The following applies: A.n. It is filed as cell-based. As to the method: as §1, §2
[1] abbreviates: read-out: Minimum Inhibitory Concentration Week 1.
Where [2] appears, read: read-out: Minimum Inhibitory Concentration Week 2.
The mark [3] stands for this setting: read-out: Minimum Inhibitory Concentration Week 3.
The mark [4] stands for this setting: read-out: Minimum Inhibitory Concentration Week 4.
The mark [5] stands for this setting: Week 1, read-out: Minimum Inhibitory Concentration Week 1.
[6] abbreviates: Week 2, weekly reinoculation, read-out: Minimum Inhibitory Concentration Week 2.
Setting [7] is: Week 3, weekly reinoculation, read-out: Minimum Inhibitory Concentration Week 3.
Setting [8] is: Week 4, weekly reinoculation, read-out: Minimum Inhibitory Concentration Week 4.

Converted amounts (≈) assume the structure as drawn. Like-named read-outs stand apart in the source and are kept apart here.

On to `CSC=C(Br)C#N` [Example 1, α-Bromo-β-methylthio-acrylonitrile], for which the MIC in the assay with Pseudomonas aeruginosa (setting [1]), in the assay with Pseudomonas aeruginosa (setting [2]), in the assay on Pseudomonas aeruginosa (setting [3]), in the assay on Pseudomonas aeruginosa (setting [4]), with Aspergillus niger (setting [5]) and with Aspergillus niger (setting [6]) was under 7.8 µg/mL throughout. Moreover, the MIC in the assay on Aspergillus niger (setting [7]) and with Aspergillus niger (setting [8]) was under 7.8 µg/mL in each case.

As for `CSC=C(Cl)C#N` [Example 2, α-Chloro-β-methylthio-acrylonitrile], the MIC is 31 to 62 µg/mL (≈ 232 to 464 µM) with Pseudomonas aeruginosa (setting [1]); 15 to 31 µg/mL (≈ 112 to 232 µM) with Pseudomonas aeruginosa (setting [2]); 15 to 31 µg/mL (≈ 112 to 232 µM) with Pseudomonas aeruginosa (setting [3]); 15 to 31 µg/mL (≈ 112 to 232 µM) in the assay on Pseudomonas aeruginosa (setting [4]); under 7.8 µg/mL in the assay with Aspergillus niger (setting [5]); under 7.8 µg/mL in the assay with Aspergillus niger (setting [6]). The MIC in the assay with Aspergillus niger (setting [7]) and in the assay with Aspergillus niger (setting [8]) was under 7.8 µg/mL throughout.

Turning to `CCSC=C(Cl)C#N` [Example 3, α-chloro-β-ethylthio-acrylonitrile], the MIC in the assay with Pseudomonas aeruginosa (setting [1]) was 250 to 500 µg/mL (≈ 1690 to 3390 µM); in the assay on Pseudomonas aeruginosa (setting [2]), 125 to 250 µg/mL (≈ 847 to 1690 µM); with Pseudomonas aeruginosa (setting [3]), 125 to 250 µg/mL (≈ 847 to 1690 µM); in the assay on Pseudomonas aeruginosa (setting [4]), 125 to 250 µg/mL (≈ 847 to 1690 µM); in the assay with Aspergillus niger (setting [5]), under 7.8 µg/mL; with Aspergillus niger (setting [6]), under 7.8 µg/mL. The MIC in the assay with Aspergillus niger (setting [7]) and in the assay on Aspergillus niger (setting [8]) was under 7.8 µg/mL in each case.

With `CCSC=C(Br)C#N` [Example 4, α-bromo-β-ethylthio-acrylonitrile], the MIC with Pseudomonas aeruginosa (setting [1]) is 31 to 62 µg/mL (≈ 161 to 323 µM); with Pseudomonas aeruginosa (setting [2]) it was 31 to 62 µg/mL (≈ 161 to 323 µM); in the assay on Pseudomonas aeruginosa (setting [3]), 31 to 62 µg/mL (≈ 161 to 323 µM); in the assay with Pseudomonas aeruginosa (setting [4]), 31 to 62 µg/mL (≈ 161 to 323 µM); in the assay with Aspergillus niger (setting [5]), under 7.8 µg/mL; in the assay with Aspergillus niger (setting [6]) it was under 7.8 µg/mL. In addition, the MIC in the assay with Aspergillus niger (setting [7]) and with Aspergillus niger (setting [8]) was under 7.8 µg/mL in each case.

For the compound `CCCSC=C(Cl)C#N` [Example 5], the MIC in the assay on Pseudomonas aeruginosa (setting [1]) was over 2000 µg/mL; with Pseudomonas aeruginosa (setting [2]), 1000 to 2000 µg/mL (≈ 6190 to 12400 µM); in the assay with Pseudomonas aeruginosa (setting [3]) it was 1000 to 2000 µg/mL (≈ 6190 to 12400 µM); in the assay with Pseudomonas aeruginosa (setting [4]), 500 to 1000 µg/mL (≈ 3090 to 6190 µM); with Aspergillus niger (setting [5]), 125 to 250 µg/mL (≈ 773 to 1550 µM); in the assay on Aspergillus niger (setting [6]), 125 to 250 µg/mL (≈ 773 to 1550 µM). Further, the MIC in the assay with Aspergillus niger (setting [7]) and in the assay on Aspergillus niger (setting [8]) was 125 to 250 µg/mL (≈ 773 to 1550 µM) each time.

For the compound `CCCCSC=C(Cl)C#N` [Example 6], the MIC with Pseudomonas aeruginosa (cosmetic lotion, P.a., Week 1, read-out: Minimum Inhibitory Concentration Week 1) is over 2000 µg/mL.
